In patent publication US11008340B2, “Modulators of ROR-gamma” (Vitae Pharmaceuticals, LLC, priority 2015, dated 2021):
Where two headings read alike, the source gives them in different places.

Legend:
[1] = molecular target: T1, full-length RORγt in Jurkat cells (Homo sapiens, UniProt P51449); assay: RORγt 5×RORE Assay in Jurkat Cells (Assay 2); type: cell-based; conditions: 5×RORE luciferase reporter
T1 construct: transcriptional activity of the full-length RORγt in Jurkat cells; host or cells: Jurkat cells (ATCC TIB-152)
T1 sequence (P51449 1-497 isoform P51449-2): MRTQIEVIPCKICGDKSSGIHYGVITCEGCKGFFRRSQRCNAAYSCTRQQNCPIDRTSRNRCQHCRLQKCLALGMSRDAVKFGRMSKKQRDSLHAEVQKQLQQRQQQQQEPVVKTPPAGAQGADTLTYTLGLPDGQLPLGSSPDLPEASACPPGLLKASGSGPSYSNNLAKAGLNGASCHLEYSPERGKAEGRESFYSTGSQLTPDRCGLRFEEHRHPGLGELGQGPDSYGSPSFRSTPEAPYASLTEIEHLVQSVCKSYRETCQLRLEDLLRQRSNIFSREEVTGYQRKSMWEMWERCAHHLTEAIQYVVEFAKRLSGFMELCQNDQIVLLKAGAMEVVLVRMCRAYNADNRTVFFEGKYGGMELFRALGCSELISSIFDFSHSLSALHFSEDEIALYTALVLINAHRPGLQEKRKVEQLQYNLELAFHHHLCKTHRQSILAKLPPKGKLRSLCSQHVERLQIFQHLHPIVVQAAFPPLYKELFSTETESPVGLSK
In short: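 Jurkat cells transiently co-transfected with full-length RORγt expression plasmid and secreted NanoLuc reporter driven by 5×RORE; plated in phenol-red-free RPMI with 10% delipidated FBS. Compounds added at 0.1% DMSO final, 16-18 hrs at 37° C; supernatant luciferase read with NanoGlo as measure of inverse agonism.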

[2] = molecular target: T2, recombinant RORγ Ligand Binding Domain (LBD) protein (Homo sapiens, UniProt P51449); assay: Radio-Ligand RORγ Binding Assay (Assay 1); conditions: radio-ligand competition, 25-hydroxy [26,27-3H]-cholesterol, RORγ LBD; read-out: Avg ROR Bind Ki
T2 construct: 6×His; GST
T2 sequence (P51449 269-508 limits assumed): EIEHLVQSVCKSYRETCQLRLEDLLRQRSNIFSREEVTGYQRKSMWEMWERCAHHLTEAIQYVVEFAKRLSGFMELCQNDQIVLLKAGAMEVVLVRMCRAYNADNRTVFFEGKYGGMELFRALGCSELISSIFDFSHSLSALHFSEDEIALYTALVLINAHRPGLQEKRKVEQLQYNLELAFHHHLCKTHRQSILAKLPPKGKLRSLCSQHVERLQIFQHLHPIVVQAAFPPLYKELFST
In short: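 Cell-free SPA competition between compound and 25-hydroxy[26,27-^3H]-cholesterol for 6×His-GST-tagged RORγ LBD in 50 mM HEPES pH 7.4 with NaCl, MgCl2, glycerol, CHAPS, octylglucoside and DTT. Mix was shaken 20 min, held 10 min at rt, then read after poly-Lys YSi beads. IC50 came from a four-parameter fit, and Ki from radioligand KD.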

[3] = Table 20, read-out: Avg ROR γt/5x IC5

| IC50 [1, 3] [nM] | Ki [2] [nM] | IC50 ([1]; read-out: Avg ROR γt/5x IC50) [nM] | SMILES |
| --- | --- | --- | --- |
| < 100 | < 100 |  | CC[C@@H]1CN(c2ncc(-c3ncco3)cn2)Cc2cc(C(=O)NCc3ccc(S(=O)(=O)CC)cc3)ccc21 (single isomer, unassigned) [Hy7-31.1] |
|  | < 100 | < 100 | CCS(=O)(=O)c1ccc([C@H](CO)NC(=O)c2sc3nc(C)nc(OC[C@H]4CC[C@H](C(F)(F)F)CC4)c3c2C)cc1 [Hy6-4, N-((R)-1-(4-(ethylsulfonyl)phenyl)-2-hydroxyethyl)-2,5-dimethyl-4-(((1r,4R)-4-(trifluoromethyl)cyclohexyl)methoxy)thieno[2,3-d]pyrimidine-6-carboxamide] |
| < 100 | < 100 |  | CCS(=O)(=O)c1ccc(CNC(=O)c2ccc3c(c2)CN(Cc2ccc(C#N)cc2)C[C@@H]3C(C)C)cc1 (single isomer, unassigned) [Hy7-28.2] |
|  | 100 to 1000 | 100 to 1000 | CCOC(=O)c1cnc(N2CCc3cc(C(=O)NCc4ccc(S(=O)(=O)CC)cc4)ccc3C2C(C)C)nc1C(F)(F)F (racemic) [Hy2A-5, ethyl 2-(6-((4-(ethylsulfonyl)benzyl)carbamoyl)-1-isopropyl-3,4-dihydroisoquinolin-2(1H)-yl)-4-(trifluoromethyl)pyrimidine-5-carboxylate] |
| > 1000 | < 100 |  | CCC1CN(C2CCC(C(F)(F)F)CC2)Cc2cc(C(=O)NC(CO)c3ccc(S(=O)(=O)CC)cc3)ccc21 (single isomer, unassigned) [Hy7-35.2] |
| < 100 | < 100 |  | CCS(=O)(=O)c1ccc(CNC(=O)c2ccc3c(c2)CN(c2ncc(-c4ccnc(OC)c4)cn2)C[C@H]3C(C)C)cc1 (single isomer, unassigned) [Hy7-23.1] |
| 100 to 1000 | < 100 |  | CCS(=O)(=O)c1ccc(CNC(=O)c2ccc3c(c2)CN(c2ncc(C4CC4)cn2)C[C@H]3C(C)C)cc1 (single isomer, unassigned) [Hy7-4.1] |
|  | < 100 | < 100 | CCS(=O)(=O)c1ccc([C@H](CO)NC(=O)c2ccc3c(OC[C@H]4CC[C@H](C(F)(F)F)CC4)nc(Cl)cc3c2)cc1 [Hy1A-11, 3-chloro-N-((R)-1-(4-(ethylsulfonyl)phenyl)-2-hydroxyethyl)-1-(((1r,4R)-4-(trifluoromethyl)cyclohexyl)methoxy)isoquinoline-6-carboxamide] |
| 100 to 1000 | < 100 |  | CC[C@H]1CN(c2ncc(C(F)(F)F)cc2C)Cc2cc(C(=O)NCc3ccc(S(=O)(=O)CC)cc3)ccc21 (single isomer, unassigned) [Hy7-13.2] |
|  | < 100 | < 100 | CCS(=O)(=O)c1ccc([C@H](CO)NC(=O)c2ccc3c(C4CC4)n(C[C@H]4CC[C@H](C(F)(F)F)CC4)nc3c2)nc1 [Hy3A-6, 3-cyclopropyl-N-((R)-1-(5-(ethylsulfonyl)pyridin-2-yl)-2-hydroxyethyl)-2-(((1r,4R)-4-(trifluoromethyl)cyclohexyl)methyl)-2H-indazole-6-carboxamide] |
